This note sets out measurements from ChEMBL document CHEMBL1148601, “Inhibition of cytosolic phospholipase A2alpha: hit to lead optimization” (J Med Chem, 2006).

For data set [1], the target named is T1, Cytosolic phospholipase A2 (Homo sapiens, UniProt P47712).
T1 sequence (P47712 whole entry): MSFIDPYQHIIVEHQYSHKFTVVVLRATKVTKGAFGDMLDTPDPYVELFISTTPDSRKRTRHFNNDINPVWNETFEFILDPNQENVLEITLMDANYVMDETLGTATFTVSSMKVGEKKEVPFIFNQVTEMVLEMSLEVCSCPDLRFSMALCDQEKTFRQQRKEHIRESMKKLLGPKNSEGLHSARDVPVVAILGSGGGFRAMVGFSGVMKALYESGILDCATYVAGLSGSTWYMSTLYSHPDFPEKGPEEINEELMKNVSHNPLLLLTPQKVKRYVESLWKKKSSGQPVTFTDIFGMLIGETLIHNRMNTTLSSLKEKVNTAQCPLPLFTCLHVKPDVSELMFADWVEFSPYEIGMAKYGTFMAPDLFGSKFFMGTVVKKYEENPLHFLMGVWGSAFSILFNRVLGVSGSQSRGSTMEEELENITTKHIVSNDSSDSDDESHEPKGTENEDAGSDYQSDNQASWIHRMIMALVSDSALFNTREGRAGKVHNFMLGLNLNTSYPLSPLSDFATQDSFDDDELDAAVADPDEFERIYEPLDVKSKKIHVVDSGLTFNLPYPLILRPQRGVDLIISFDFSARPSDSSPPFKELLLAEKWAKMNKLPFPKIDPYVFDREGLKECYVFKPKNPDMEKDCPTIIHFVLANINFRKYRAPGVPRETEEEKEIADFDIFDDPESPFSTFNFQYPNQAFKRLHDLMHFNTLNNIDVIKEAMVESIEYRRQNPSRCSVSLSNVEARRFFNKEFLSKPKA
The data set can be described thus: Inhibition of cytosolic phospholipase A2-alpha in GLU micelle assay.

Data set [2] is described as follows: Inhibition of TXB2 production in Sprague-Dawley rat whole blood. The format is functional, tissue-based.
Data set [3] in a line: Inhibition of LTB4 production expressed in MC9 cells in presence of 1 megacells/mL. It counts as functional, cell-based. The following applies: Mus musculus.
Data set [4] is described as follows: Inhibition of LTB4 production expressed in MC9 cells in presence of 4 megacells/mL. Conditions: Mus musculus. It counts as functional, cell-based.
Data set [5] is described as follows: Inhibition of LTB4 production expressed in MC9 cells in presence of 8 megacells/mL. The format is functional, cell-based. The following applies: Mus musculus.
Data set [6] can be described thus: Inhibition of LTB4 production in MC9 cells at 0.5 uM. It counts as functional. The following applies: Mus musculus.
Data set [7] in a line: Inhibition of PGF2-alpha production in MC9 cells at 0.5 uM. The format is functional. Conditions: Mus musculus.
The nature of data set [8]: Inhibition of PGF2-alpha production in the presence of exogenous arachidonic acid in MC9 cells at 0.5 uM. The format is functional. Conditions: Mus musculus.
A short description of data set [9]: Inhibition of TXB2 production in human whole blood. It counts as functional, tissue-based.
Data set [10] in a line: Inhibition of LTB4 production in human whole blood. It counts as functional, tissue-based.
The nature of data set [11]: Plasma concentration in rat. It counts as ADME, organism-based.
Data set [12] can be described thus: Oral bioavailability in rat. The format is ADME, organism-based. The following applies: in vivo.
For data set [13], the species on record is Rattus norvegicus. The data set is described as follows: Inhibition of TXB2 production in Sprague-Dawley rat whole blood at 10 uM. It counts as functional, tissue-based.

Activity calls are given as the source filed them. The rule behind the calls is not given here.

Take `O=C(O)c1ccc(OCCc2cn(C(c3ccccc3)c3ccccc3)c3ccc(Cl)cc23)cc1`: the IC50 in [1] turned out to be 5 µM; in data set [2], 14 µM.
On to `COC(=O)c1ccc(OCCc2c(C(C)(C)C)n(C(c3ccccc3)c3ccccc3)c3ccc(Cl)cc23)cc1`, for which the IC50 in data set [1] is 20 µM; in data set [2], greater than 25 µM.
`Cc1c(CCS(=O)(=O)CCc2ccc(C(=O)O)cc2)c2cc(Cl)ccc2n1C(c1ccccc1)c1ccccc1`: the IC50 in data set [1] was 93 µM; in data set [2], 14 µM.
The corresponding values for `Cc1c(CC(=O)O)c2cc(Cl)ccc2n1C(c1ccccc1)c1ccccc1` are 165 µM and less than 100 µM.
On to `Cc1c(CCS(=O)(=O)c2ccc(C(=O)O)cc2)c2cc(F)ccc2n1C(c1ccccc1)c1ccccc1`, for which the IC50 in data set [1] is 1 µM; in data set [2], 5 µM.
`O=C(O)c1ccc(OCCc2c(-c3ccccc3)n(C(c3ccccc3)c3ccccc3)c3ccc(Cl)cc23)cc1`: the half-inhibitory concentration (IC50) in data set [1] and in data set [2] was greater than 50 µM throughout.
As to `COc1ccc2c(c1)c(CCS(=O)(=O)c1ccc(C(=O)O)cc1)c(C)n2C(c1ccccc1)c1ccccc1`, the IC50 came to 3 µM in [1] and 7 µM in [2].
The like results for `Cc1c(CCOc2ccc(C(=O)O)cc2)c2cc(-c3ccccc3)ccc2n1C(c1ccccc1)c1ccccc1` were, in that order, 33 µM and 9 µM.
The like results for `Cc1c(CCOC(=O)Nc2ccc(C(=O)O)cc2)c2cc(Cl)ccc2n1C(c1ccccc1)c1ccccc1` were, in that order, 38 µM and 13 µM.
Regarding `Cc1c(CCSc2ccc(C(=O)O)cc2)c2cc(Cl)ccc2n1C(c1ccccc1)c1ccccc1`, the values for the concentration for half-maximal inhibition (IC50) in [1] and in data set [2] were 2 µM and 10 µM, respectively.
Regarding `Cc1c(CC[S+]([O-])CCc2ccc(C(=O)O)cc2)c2cc(Cl)ccc2n1C(c1ccccc1)c1ccccc1` (stereo not drawn), the IC50 was 18 µM in [1] and 25 µM in data set [2].
For `Cc1c(CCCCOc2ccc(C(=O)O)cc2)c2cc(Cl)ccc2n1C(c1ccccc1)c1ccccc1`, the IC50 came to 2 µM in [1] and 9 µM in [2].
The corresponding values for `Cc1c(CCOc2ccc(CCCC(=O)O)cc2)c2cc(Cl)ccc2n1C(c1ccccc1)c1ccccc1` are 20 µM and 50 µM.
For `Cc1c(CCCc2ccc(C(=O)O)cc2)c2cc(Cl)ccc2n1C(c1ccccc1)c1ccccc1`, the IC50 in data set [1] is 2 µM.
For `COc1cc(C(=O)O)ccc1Cc1cn(C(c2ccccc2)c2ccccc2)c2cc(Cl)ccc12`, the IC50 is 160 µM in data set [1]; greater than 400 µM in data set [2]; 0.8 µM in [3]; 1.5 µM in data set [4]; 8.3 µM in data set [5].
As for `O=C(O)c1cccc(CC(O)Cc2cn(C(c3ccccc3)c3ccccc3)c3cc(Cl)ccc23)c1` (stereo not drawn), the IC50 in [1] worked out at 90 µM.
Take `Cc1c(CCOc2ccc(C(=O)O)cc2Cl)c2cc(Cl)ccc2n1C(c1ccccc1)c1ccccc1`: the results for the IC50 in data set [1] and in [2] were 11 µM and 25 µM, respectively.
For the compound `Cc1c(CCOc2ccc(C(=O)O)cc2)c2cc(N3CCOCC3)ccc2n1C(c1ccccc1)c1ccccc1`, the IC50 was 22 µM in data set [1] and greater than 10 µM in [2].
For `COc1c(Cc2cn(C(c3ccccc3)c3ccccc3)c3cc(Cl)ccc23)cccc1C(=O)O`, half-maximal inhibition in data set [1] (IC50) required 120 µM.
As to `Cc1c(CCS(=O)(=O)c2ccc(C(=O)O)cc2)c2cccc(Cl)c2n1C(c1ccccc1)c1ccccc1`, the IC50 was determined as 6 µM in [1] and 10 µM in data set [2].
Regarding `Cc1c(CCS(=O)(=O)c2ccc(CCC(=O)O)cc2)c2cc(Cl)ccc2n1C(c1ccccc1)c1ccccc1`, the half-inhibitory concentration (IC50) in [1] came to 0.5 µM; in data set [2], 0.8 µM; in data set [9], 1.4 µM; in data set [10], 0.9 µM. The inhibition at 0.5 µM came out at 100% in data set [6], 100% in data set [7] and 2% in [8]. In data set [11], this compound registered a clearance of 47 mL/min/kg. The bioavailability in data set [12] turned out to be 11%.
As to `Cc1c(CCOc2ccc(CC(=O)O)cc2)c2cc(Cl)ccc2n1C(c1ccccc1)c1ccccc1`, the IC50 is greater than 10 µM in data set [1] and 48 µM in data set [2].
Turning to `O=C(O)c1ccc(OCC(O)Cc2cn(C(c3ccccc3)c3ccccc3)c3cc(Cl)ccc23)cc1` (stereo not drawn), the IC50 was determined as 40 µM in [1] and 100 µM in data set [2].
`Cc1c(CCNc2ccc(C(=O)O)cc2)c2cc(Cl)ccc2n1C(c1ccccc1)c1ccccc1`: the results for the IC50 in data set [1] and in [2] were 23 µM and greater than 25 µM, respectively.
Consider `O=C(COc1ccc(SCCCCCc2ccccc2)cc1)COc1ccc(C(=O)O)cc1`, for which the IC50 came out at 0.04 µM in data set [1], 12 µM in data set [2] and 1.5 µM in data set [4].
Consider `Cc1c(CCOc2cccc(C(=O)O)c2)c2cc(Cl)ccc2n1C(c1ccccc1)c1ccccc1`, for which the IC50 was 120 µM in data set [1] and greater than 50 µM in [2].
With `Cc1c(CCOc2ccc(C(=O)O)c(Cl)c2)c2cc(Cl)ccc2n1C(c1ccccc1)c1ccccc1`, the half-inhibitory concentration (IC50) in data set [1] stood at 7 µM; in [2] it was 25 µM.
As to `Cc1c(CCOc2cc(C(=O)O)on2)c2cc(Cl)ccc2n1C(c1ccccc1)c1ccccc1`, the results for the IC50 in [1] and in [2] were 40 µM and greater than 50 µM, respectively.
As for `Cc1c(CCS(=O)(=O)c2ccc(C(=O)O)cc2)c2c(Cl)cccc2n1C(c1ccccc1)c1ccccc1`, the results for the IC50 in [1] and in [2] were 2 µM and 12 µM, respectively.
For the compound `Cc1c(CCS(=O)(=O)c2ccc(C(=O)O)cc2)c2c(Cl)c(Cl)ccc2n1C(c1ccccc1)c1ccccc1`, the results for the IC50 in data set [1] and in data set [2] were 1 µM and 4 µM, respectively.
The corresponding values for `Cc1c(CCC(=O)NCc2ccc(C(=O)O)cc2)c2cc(Cl)ccc2n1C(c1ccccc1)c1ccccc1` are 30 µM and 50 µM.
For `Cc1c(CC[S+]([O-])c2ccc(C(=O)O)cc2)c2cc(Cl)ccc2n1C(c1ccccc1)c1ccccc1` (stereo not drawn), the IC50 in [1] was determined as 1 µM; in [2], 3 µM.
Consider `Cc1c(CCOc2ccc(CCC(=O)O)cc2)c2cc(Cl)ccc2n1C(c1ccccc1)c1ccccc1`, for which the IC50 in [1] worked out at 3 µM; in data set [2], 2 µM.
Turning to `Cc1c(CCS(=O)(=O)c2ccc(C(=O)O)cc2)c2cc(Cl)c(Cl)cc2n1C(c1ccccc1)c1ccccc1`, the IC50 turned out to be 3 µM in data set [1] and 2 µM in data set [2].
With `Cc1c(CCOc2ccc(C(=O)O)cc2)c2cc(Br)ccc2n1C(c1ccccc1)c1ccccc1`, the IC50 in data set [1] was 2 µM; in [2], 3 µM.
For `Cc1c(CCOc2ccc(C(=O)O)cc2)c2cc([N+](=O)[O-])ccc2n1C(c1ccccc1)c1ccccc1`, the IC50 turned out to be 5 µM in data set [1] and 8 µM in data set [2].
The corresponding values for `Cc1c(CCS(=O)(=O)c2ccc(C(=O)O)cc2)c2ccc(Cl)cc2n1C(c1ccccc1)c1ccccc1` are 4 µM and 5 µM.
For the compound `Cc1c(CCS(=O)(=O)c2ccc(C(=O)O)cc2)c2ccccc2n1C(c1ccccc1)c1ccccc1`, the IC50 in data set [1] was found to be 2 µM; in [2], 6 µM.
Consider `O=C(O)c1ccc(OCC(O)COc2ccc(SCCCCCc3ccccc3)cc2)cc1` (stereo not drawn), for which the concentration for half-maximal inhibition (IC50) in data set [1] was 340 µM; in data set [2], greater than 100 µM.
In data set [1], `Cc1c(CCOc2ccc(C(=O)O)cc2)c2cc(N)ccc2n1C(c1ccccc1)c1ccccc1` yielded an IC50 of 8 µM. In addition, the inhibition result in data set [13] is “inactive”.
Consider `Cc1c(CCOc2ccc(C(=O)O)cc2)c2ccc(Cl)cc2n1C(c1ccccc1)c1ccccc1`, for which the results for the IC50 in [1] and in data set [2] were 6 µM and 13 µM, respectively.
Take `Cc1c(CCOc2ccc(C(=O)O)c(F)c2)c2cc(Cl)ccc2n1C(c1ccccc1)c1ccccc1`: the IC50 in data set [1] was 2 µM; in [2] it was 8 µM.
As to `Cc1c(CCS(=O)(=O)c2ccc(C(=O)O)cc2)c2cc(Cl)ccc2n1C(c1ccccc1)c1ccccc1`, the IC50 is 0.8 µM in [1], 2 µM in data set [2], 8.4 µM in [9] and 6.3 µM in [10]. The inhibition at 0.5 µM in data set [6] amounted to 82%; in data set [7], 72%; in data set [8], 8%. In data set [11], this compound came in with a clearance of 44 mL/min/kg. The compound further registered a bioavailability in [12] of 39%.
As to `Cc1c(C(=O)C(=O)Nc2ccc(C(=O)O)cc2)c2cc(Cl)ccc2n1C(c1ccccc1)c1ccccc1`, the figures for the IC50 in [1] and in data set [2] were 26 µM and 25 µM, respectively.
